Experiments:
PAR2 [1] = assay: Cellular Thermal Shift Assay (CETSA) and Western blot in lysates of HepG2 cells overexpressing PAR2; type: binding, human; conditions: soluble fraction of extracts of HepG2 overexpressing PAR2, progressive increase in temperature
Source text: These interaction data between 1-PPA and PAR2 were also confirmed at the protein level, using the cellular thermal shift assay (CETSA) (Science 341 (6141): 84-87). This is a biophysical assay based on the principle of ligand-induced thermal stabilization of target proteins, as the melting temperature of proteins changes according to the interaction of the ligand.
This conformation was identified as level class 0, which is the highest scoring and most reliable analysis. […] In particular, HepG2 cells have been genetically modified to overexpress transiently PAR 2 using cDNA as expression plasmid 3.1. The soluble fraction of the cell extracts was then subjected to the CETSA test, in the presence or absence of 1-PPA, according to the protocol. The samples were also studied by Wester blot using an anti HA-tag PAR 2 monoclonal antibody.

TNF-α = assay: LPS-induced TNF-α transcriptional expression in THP-1 cells (RT-PCR); type: cell-based, human
Method: (§1) Given that PAR2 is deeply implicated in the induction of proinflammatory cytokines, the ability of PPA in the inhibition of proinflammatory cytokines in a context simulating bacterial sepsis was evaluated. In FIGS. 3A and 3B the THP-1 cell line of monocytic origin was used, incubated with LPS ([…]), which in example 1 had induced an increase in the synthesis of endogenous PAR2. Cells were simultaneously treated with 1-PPA at a concentration of 1 ng/ml or 100 ng/ml or medium alone as control and incubated for 1 or 4 hours. The cell extracts were used to analyze the transcriptional expression of the cytokines TNF-α and IL-1β by RT-PCR.

PAR2 [2] = assay: PAR2 mRNA expression (qPCR) in LPS-stimulated THP-1 cells; type: cell-based, human
Method: (§2) In order to evaluate the effect of 1-Piperidin Propionic acid on the transcriptional activity of the membrane receptor Protease Activated Receptor-2 (PAR2), monocyte-derived cell line THP-1 was used. The cells were incubated with LPS, known to induce PAR2 expression in this cell compartment, at a concentration of 1 ng/ml, or with medium alone, as a control, for 2 hours with 1-PPA at a concentration of 1 ng/ml and 100 ng/ml. In further experiments transfected HepG2 cells were used transiently with plasmid containing the human PAR2 sequence by Lipofectamy. These cells were incubated with medium alone, as a control, or with increasing concentrations of 1-PPA, as described above. Cell extracts from both lines were then subjected to extraction of cellular RNA which was reverse transcribed into cDNA and amplified by qPCR.
(§3) Similar results were also obtained in transfected HepG2 cells transiently to overexpress PAR2.

IL-1β = assay: LPS-induced IL-1β transcriptional expression in THP-1 cells (RT-PCR); type: cell-based, human
Method: as §1

[3] = In vivo organ damage (liver, kidney) after 26 weeks of 1-PPA; design: species or system CC57/BL6 mice; conditions: 0.07 and 0.7 μg/g/week, normal diet, serum
Method: The organ damage of the 1-PPA compound in vivo was also evaluated, considering the function of the liver and kidney, the main organs responsible for pharmacological catabolismln detail, the study included 2 groups of CC57/BL6 mice (4 mice/group, age 45 days), inoculated with 1-PPA at concentrations of 0.07 and 0.7 μg/g/week), for a time period of 26 weeks. All animals were fed a normal diet throughout the study. Before starting the 1-PPA inoculation, a basal blood sample was taken from all animals and a second sample was taken from the sacrifice.
At serum level, alanine aminotransferase (ALT) as an indicator of hepatic cytolytic damage, bilirubin as an indicator of hepatic cholestasis, blood urea nitrogen (Blood urea nitrogen, BUN) as an indicator of renal damage were evaluated. The results were expressed as the ratio between the value of the final sampling and that of the basal sampling.

gouty arthritis = assay: Mouse model of gouty arthritis (uric acid microcrystals in hind paw); type: in vivo, mice (C57BL6J)
Source text: To evaluate the inhibitory capacity of 1-PPA in pain perception, notoriously mediated by PAR2 as a receptor of peripheral nerve endings (Andrea S. Rothmeier & Wolfram Ruf. Semin Immunopathol, 2012; 34:133-149), an experimental model of inflammatory arthritis was used. In particular, a mouse model of gout was used by injecting microcrystals of uric acid subcutaneously into the plantar surface of the hind legs of mice (C57BL6J), followed by injection of 1-PPA at different concentrations in one hind leg, using the contralateral leg as a control. After a few hours, the microcrystal treatment induces swelling and edema at the injection site which reaches a peak of inflammation and pain at 48 hours and then resolves spontaneously.
To evaluate the intensity of pain, the electronic von Frey test was used, which involves recording the intensity of the stimulus that evokes a withdrawal reflex, after the application of the pain stimulus to the plantar surface of the hind leg.

LPS-induced sepsis = assay: LPS-induced systemic sepsis model in mice; type: in vivo, C57BL/6 J mice; conditions: LPS about 10 mg/kg intraperitoneal
Method: In vivo experiments are underway on models of systemic sepsis, in order to validate the protective effect of 1-PPA against the development of cytokine storm and septic shock with multiple organ failure, using C57BL/6 J mice. The first part of the study consists in the induction of sepsis through LPS and experimental treatment with 1-PPA.
The intraperitoneal administration with LPS (about 10 mg/kg, L4130, Sigma-Aldrich) associated with 1-PPA or alternatively with PBS, was carried out under anesthesia (Sevorane at 4% in medical oxygen) through the use of Fluovac (Harvard Instruments), dedicated for the anesthesia of small animals.
The time interval of 8 hours is considered the optimal interval for observing the onset of scientifically quantifiable sepsis in mice, and for evaluating the efficacy of a treatment aimed at inhibiting it by administering 1-PPA.
FIG. 6A illustrates the experimental design and the quantification of the degree of malaise using a score commonly used to determine the condition of the animal, where 0 refers to the normal condition and 5 refers to a pre-terminal condition. A score of 6 was attributed to the death of the animal.

PAR2 [4] = assay: PAR2 mRNA expression (qPCR) in HepG2 cells transiently transfected to overexpress PAR2; type: cell-based, human
Method: as §2, §3

platelet aggregation = assay: Platelet aggregation, TRAP test, Multiplate analyzer, whole blood; type: cell-based; conditions: TRAP-6, increasing concentrations of 1-PPA
Source text: The analysis of platelet function can be performed by the Multiplate® analyzer (Roche Diagnostics) which is a method based on impedance aggregometry and can be used to measure platelet function in whole blood in the presence or absence of inhibitors. In particular the TRAP test is an assay for the in vitro quantitative determination of platelet function triggered by thrombin receptor activating peptide-6 (TRAP-6) which is a potent platelet activator and stimulates platelet aggregation through the thrombin receptor PAR-1, this peptide has also been found capable of activating PAR2 (Cas #AS-24190-25, CliniScience), which can be activated by thrombin in the presence of thrombomodulin (Heuberger et al, Thrombosis Research 2019, 177:91-101).
Multiplate® Analyzer, Roche Diagnostics) was used, where the blood sample was analyzed alone or in presence of increasing concentrations of 1-PPA.

HepG2 cell line = assay: In vitro toxicity, real-time cell proliferation (XCelligence) in HepG2; type: cell-based
Source text: Real-time cell proliferation was monitored using the XCelligence tool (ACEA) and the results were expressed as Cell Index, which expresses the cell number at each point considered.

chronic kidney disease = assay: CKD induced by folic acid and treatment with 1-PPA; type: in vivo, mouse; conditions: FA 125 mg/kg i.p., 1-PPA i.p. 0.1 μg/g from third day, thirtieth day, expected
Method: A single intraperitoneal injection of FA (dosage of 125 mg/kg) induces renal damage which reproduces the analogous syndrome in man after 30 days. To ensure maximum precision and least distress for the animal, the 1-PPA inoculation is performed by anesthetizing the mouse for a few minutes using deep inhalation surgical anesthesia using 4% Sevorane in medical oxygen administered through a Fluovac device (Harvard Instruments) specifically dedicated to the anesthesia of laboratory rodents.
Treatment with 1-PPA (i.p. injection at a concentration of 0.1 μg/g of body weight) begins from the third day after the induction of renal damage (groups FA+1-PPA). Control groups are treated with PBS (FA+PBS groups).
Renal function is monitored weekly by semiquantitative evaluation of proteinuria using multistix (Siemens). For urine collection, the […] is placed in a carefully cleaned plexiglass tray, in the presence of dedicated environmental enrichment. After 30 days from the induction of the renal damage the animals are sacrificed by cervical dislocation or excess anesthesia. Peripheral blood is collected by intracardiac puncture, and kidneys and liver are sampled in formalin and at −80° C. for subsequent evaluations of IHC and gene expression. […]

[5] = THP-1, 1-PPA 1 ng/ml or 100 ng/ml, 1 or 4 hours

For `O=C(O)CCN1CCCCC1` [1-PPA, 1-Piperidine Propionic Acid], the “thermal stabilization of PAR2 protein (CETSA)” value (PAR2 [1]) was “thermal stability of the PAR2 protein”, the “TNF-α transcriptional expression induced by LPS” value (TNF-α; [5]) was “effectively blocked” and the “concentration at which inhibitory effect is achieved” value (TNF-α; THP-1, LPS) was 1 ng/mL. The “PAR2 mRNA expression” value (PAR2 [2]; THP-1 cells, LPS 1 ng/ml, 2 hours, 1-PPA 1 ng/ml and 100 ng/ml) was “marked reduction of its expression”, the “concentration capable of inhibiting the synthesis of PAR2” value (PAR2 [2]; THP-1 line, PAR2 overexpression conditions) was 1 ng/mL and the “IL-1β transcriptional expression induced by LPS” value (IL-1β; [5]) was “effectively blocked”. For the same compound, the “concentration at which inhibitory effect is achieved” value (IL-1β; THP-1, LPS) was 1 ng/mL, the “control of IL-1β synthesis over time” value (IL-1β; lowest 1-PPA concentration (1 ng/ml), persisting LPS induction) was “still more effective in controlling the synthesis” and the “alanine aminotransferase (ALT), ratio final/basal sampling” value [3] was under 2 ×normal values. The “bilirubin, ratio final/basal sampling” value [3] was under 2 ×normal values, the “blood urea nitrogen (BUN), ratio final/basal sampling” value [3] was under 2 ×normal values and the “stimulus to induce the withdrawal reflex (electronic von Frey test)” value (gouty arthritis; compared to mice injected only with microcrystals) was “significantly greater stimulus”. For the same compound, the “paw edema and redness (confirmed by paw circumference)” value (gouty arthritis; urate microcrystals subcutaneously in plantar surface, 1-PPA injected in hind leg, versus not treated) was “visually less edematous and reddened”, the “degree of malaise score (0 normal, 5 pre-terminal, 6 death)” value (LPS-induced sepsis; 1-PPA 3 μg, maximum reached) was at most 2 and the “protection from LPS-induced sepsis” value (LPS-induced sepsis; low concentrations of 1-PPA) was “protected mice from LPS-induced sepsis”. For the same compound, the “concentration capable of inhibiting the synthesis of PAR2” value (PAR2 [4]; HepG2 line, PAR2 overexpression conditions) was 1 ng/mL, the “PAR2 mRNA expression” value (PAR2 [4]; HepG2 transiently transfected with human PAR2 plasmid, increasing concentrations of 1-PPA) was “effective inhibition of PAR2 mRNA” and the platelet aggregation (platelet aggregation) was “inhibiting platelet aggregation in a dose-dependent manner”. For the same compound, the “non-toxic concentration relative to biologically effective dose” value (HepG2 cell line; 5 μg/ml versus biologically effective dose) was “at least 50 times”, the “cellular toxic effect (Cell Index)” value (HepG2 cell line; HepG2, 5 μg/ml) was “did not demonstrate a cellular toxic effect” and the “mean value of proteinuria measured in the urine” value (chronic kidney disease) was “moderate residual damage”.
